Measurements published in the NIST ThermoML archive (doi:10.1016/j.jct.2010.03.021).
Where “and” joins values, the source holds several entries; their conditions need not be identical. Equal entries are not always repeated. ± gives the expanded uncertainty stated by the source.

What was measured:
[1] = Crystal, Calculated from knudsen effusion weight loss
[2] = molar enthalpy of vaporization or sublimation; settings: Crystal

O=[N+]([O-])c1ccccc1-n1cccc1 [1-(2-nitrophenyl)pyrrole]
[1]
Settings	vapor or sublimation pressure
306.11 K	0.000106 ± 5e-06 kPa and 0.000108 ± 5e-06 kPa and 0.000109 ± 5e-06 kPa
308.2 K	0.000141 ± 7e-06 kPa and 0.000138 ± 7e-06 kPa and 0.000139 ± 7e-06 kPa
310.18 K	0.000181 ± 9e-06 kPa and 0.000173 ± 9e-06 kPa and 0.000174 ± 9e-06 kPa
312.12 K	0.000226 ± 1.1e-05 kPa and 0.000227 ± 1.1e-05 kPa and 0.000228 ± 1.1e-05 kPa
314.19 K	0.000291 ± 1.5e-05 kPa and 0.000284 ± 1.4e-05 kPa and 0.00029 ± 1.5e-05 kPa
316.18 K	0.000368 ± 1.8e-05 kPa and 0.000355 ± 1.8e-05 kPa and 0.000358 ± 1.8e-05 kPa
318.11 K	0.000464 ± 2.3e-05 kPa and 0.000466 ± 2.3e-05 kPa
320.18 K	0.0006 ± 3e-05 kPa and 0.000587 ± 2.9e-05 kPa and 0.000594 ± 3e-05 kPa
322.18 K	0.000764 ± 3.8e-05 kPa and 0.000733 ± 3.7e-05 kPa and 0.00074 ± 3.7e-05 kPa
324.12 K	0.000955 ± 4.8e-05 kPa and 0.000965 ± 4.8e-05 kPa and 0.000963 ± 4.8e-05 kPa
326.2 K	0.001224 ± 0.00013 kPa and 0.001209 ± 0.00013 kPa and 0.001238 ± 0.00013 kPa

[2], Clausius-Clapeyron Equation
Settings	molar enthalpy [kcal/mol]
298.15 K	24.21 ± 0.191
316.16 K	24 ± 0.191

O=[N+]([O-])c1ccc(-n2cccc2)cc1 [1-(4-nitrophenyl)pyrrole]
[1]
Settings	vapor or sublimation pressure
344.09 K	9.59e-05 ± 4.8e-06 kPa and 9.52e-05 ± 4.8e-06 kPa and 9.41e-05 ± 4.7e-06 kPa
346.13 K	0.000118 ± 6e-06 kPa and 0.000117 ± 6e-06 kPa
348.17 K	0.000145 ± 7e-06 kPa and 0.000144 ± 7e-06 kPa
350.09 K	0.000179 ± 9e-06 kPa and 0.000182 ± 9e-06 kPa and 0.000181 ± 9e-06 kPa
352.13 K	0.000219 ± 1.1e-05 kPa and 0.00022 ± 1.1e-05 kPa and 0.000227 ± 1.1e-05 kPa
354.18 K	0.00027 ± 1.4e-05 kPa and 0.000272 ± 1.4e-05 kPa and 0.000284 ± 1.4e-05 kPa
356.13 K	0.000344 ± 1.7e-05 kPa and 0.000343 ± 1.7e-05 kPa and 0.00034 ± 1.7e-05 kPa
358.2 K	0.00043 ± 2.2e-05 kPa and 0.000417 ± 2.1e-05 kPa and 0.000427 ± 2.1e-05 kPa
360.16 K	0.000505 ± 2.5e-05 kPa and 0.000525 ± 2.6e-05 kPa
362.07 K	0.000642 ± 3.2e-05 kPa and 0.000638 ± 3.2e-05 kPa and 0.000641 ± 3.2e-05 kPa
364.09 K	0.000766 ± 3.8e-05 kPa and 0.000762 ± 3.8e-05 kPa and 0.000783 ± 3.9e-05 kPa
366.16 K	0.000934 ± 4.7e-05 kPa and 0.000933 ± 4.7e-05 kPa

[2]
Settings	molar enthalpy [kcal/mol]
298.15 K, Ebulliometric method (Recirculating still)	26.86 ± 0.215
355.13 K, Clausius-Clapeyron Equation	26.2 ± 0.191
